Molecular target: USP14 (Homo sapiens (Human), UniProt P54578)
Test: USP14 Inhibition Assay
Format: biochemical
Settings: average value from a minimum of two experimental determinations, read-out: IC50 Category
Protocol: Example 17: USP14 Inhibition Assay
“I” in the Table below designates an IC50 of >5 μM, “II” in the Table below designates and IC50 between 0.5 and 5 μM, and “III” designates an IC50<0.5 μM. The IC50 values in the Table below represent the average value from a minimum of two experimental determinations.

Chain of USP14 (P54578 whole entry, looked up): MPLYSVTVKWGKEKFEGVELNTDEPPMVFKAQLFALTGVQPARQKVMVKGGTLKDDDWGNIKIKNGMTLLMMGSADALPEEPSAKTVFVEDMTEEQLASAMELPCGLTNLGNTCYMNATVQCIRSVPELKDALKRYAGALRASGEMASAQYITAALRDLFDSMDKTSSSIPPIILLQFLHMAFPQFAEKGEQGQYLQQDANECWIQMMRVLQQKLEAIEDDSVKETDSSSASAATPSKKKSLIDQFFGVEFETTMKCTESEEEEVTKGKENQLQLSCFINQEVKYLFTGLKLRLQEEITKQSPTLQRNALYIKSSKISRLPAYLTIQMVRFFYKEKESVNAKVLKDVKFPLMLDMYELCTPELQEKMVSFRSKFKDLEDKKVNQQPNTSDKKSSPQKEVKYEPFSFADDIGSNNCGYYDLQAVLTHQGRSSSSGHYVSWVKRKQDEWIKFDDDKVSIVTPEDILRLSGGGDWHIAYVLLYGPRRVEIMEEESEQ

With “4-(2-Methyl-3-(2-(piperidin-1-yl)acetyl)-1H-indol-1-yl)benzonitrile [Compound 160]” as the compound, how does the IC50 read?
Its IC50 is < 0.5 µM.

O=C(CN1CCC(O)CC1)c1cn(-c2ccc(Cl)cc2)c2ccccc12 [Compound 30] was tested. Which IC50 did it give?
Its IC50 is > 5 µM.

O=C(CN1CCCCC1)c1cn(-c2ccc(Cl)cc2)c2ccccc12 [Compound 31] was tested. Which IC50 did it give?
Its IC50 is > 5 µM.

With O=C(CN1CCCC1)c1cn(-c2ccc(Cl)cc2)c2ccccc12 [Compound 34] as the compound, how does the IC50 read?
The IC50 was > 5 µM.

Which IC50 does the source give for Cc1c(C(=O)CN2CCC(O)CC2)c2ccccc2n1-c1ccc(Cl)cc1 [Compound 86] here?
Its IC50 is < 0.5 µM.

How did the IC50 turn out when Cc1c(C(=O)CN2CCCCC2)c2ccccc2n1-c1ccc(Cl)cc1 [Compound 87] was run?
The IC50 was < 0.5 µM.

Cc1c(C(=O)CN2CCCC2)c2ccccc2n1-c1ccc(Cl)cc1 [Compound 88] was tested. Which IC50 did it give?
Its IC50 is < 0.5 µM.

How did the IC50 turn out when Cc1c(C(=O)CN2CCCCC2)c2cc(F)ccc2n1-c1ccc(Cl)cc1 [Compound 98] was run?
Its IC50 is < 0.5 µM.

Cc1c(C(O)CN2CCCCC2)c2ccccc2n1-c1ccc(Cl)cc1 (stereo not shown) [Compound 106, 1-(1-(4-Chlorophenyl)-2-methyl-1H-indol-3-yl)-2-(piperidin-1-yl)ethan-1-ol] was tested. Which IC50 did it give?
Its IC50 is > 5 µM.

Which IC50 does the source give for Cc1c(C(=O)CN2CCCCC2)c2ccccc2n1-c1ccc(C(N)=O)cc1 [Compound 108] here?
The IC50 was > 5 µM.

How did the IC50 turn out when O=C(CN1CCCCC1)c1cn(-c2ccc(Cl)cc2)c2cc(CO)ccc12 [Compound 115, 1-(1-(4-Chlorophenyl)-6-(hydroxymethyl)-1H-indol-3-yl)-2-(piperidin-1-yl)ethan-1-one] was run?
Its IC50 is > 5 µM.

Which IC50 does the source give for Cc1c(C(=O)CC2CCCCC2)c2ncccc2n1-c1ccc(C#N)cc1 [Compound 116] here?
Its IC50 is > 5 µM.

CC(=O)OCc1ccc2c(C(=O)CN3CCCCC3)cn(-c3ccc(Cl)cc3)c2c1 [Compound 118, (1-(4-Chlorophenyl)-3-(2-(piperidin-1-yl)acetyl)-1H-indol-6-yl)methyl Acetate] was tested. Which IC50 did it give?
Its IC50 is > 5 µM.

With CNCc1ccc2c(C(=O)CN3CCCCC3)cn(-c3ccc(Cl)cc3)c2c1 [Compound 119, 1-(1-(4-Chlorophenyl)-6-((methylamino)methyl)-1H-indol-3-yl)-2-(piperidin-1-yl)ethan-1-one] as the compound, how does the IC50 read?
The IC50 was > 5 µM.

How did the IC50 turn out when O=C(CN1CCCCC1)c1cn(-c2ccc(Cl)cc2)c2cc(O)ccc12 [Compound 120] was run?
The IC50 was > 5 µM.

COC(=O)c1ccc2c(C(O)CN3CCCCC3)c(C)n(-c3ccc(Cl)cc3)c2c1 (stereo not shown) [Compound 126, Methyl 1-(4-Chlorophenyl)-3-(1-hydroxy-2-(piperidin-1-yl)ethyl)-2-methyl-1H-indole-6-carboxylate] was tested. Which IC50 did it give?
The IC50 was > 5 µM.

How did the IC50 turn out when Cc1c(C(=O)CN2CCCCC2)c2nc(O)ccc2n1-c1ccc(C#N)cc1 [Compound 127, 4-(5-Hydroxy-2-methyl-3-(2-(piperidin-1-yl)acetyl)-1H-pyrrolo[3,2-b]pyridin-1-yl)benzonitrile] was run?
Its IC50 is > 5 µM.

With Cc1[nH]c2cccnc2c1C(=O)CN1CCCCC1 [Compound 128, 1-(2-Methyl-1H-pyrrolo[3,2-b]pyridin-3-yl)-2-(piperidin-1-yl)ethan-1-one] as the compound, how does the IC50 read?
The IC50 was > 5 µM.

How did the IC50 turn out when Cc1c(C(O)CN2CCCCC2)c2ccc(CO)cc2n1-c1ccc(Cl)cc1 (stereo not shown) [Compound 130, 1-(1-(4-Chlorophenyl)-6-(hydroxymethyl)-2-methyl-1H-indol-3-yl)-2-(piperidin-1-yl)ethan-1-ol] was run?
Its IC50 is > 5 µM.

How did the IC50 turn out when O=C(CN1CCCCC1)c1c(O)n(-c2ccc(Cl)cc2)c2ccccc12 [Compound 131, 1-(1-(4-Chlorophenyl)-2-hydroxy-1H-indol-3-yl)-2-(piperidin-1-yl)ethan-1-one] was run?
The IC50 was > 5 µM.

For COc1c(C(=O)CN2CCCCC2)c2ccccc2n1-c1ccc(Cl)cc1 [Compound 132, 1-(1-(4-Chlorophenyl)-2-methoxy-1H-indol-3-yl)-2-(piperidin-1-yl)ethan-1-one], which IC50 is on record?
Its IC50 is > 5 µM.

CCOC(=O)CCc1ccc2c(C(=O)CN3CCCCC3)c(C)n(-c3ccc(C#N)cc3)c2c1 [Compound 133, Ethyl 3-(1-(4-Cyanophenyl)-2-methyl-3-(2-(piperidin-1-yl)acetyl)-1H-indol-6-yl)propanoate] was tested. Which IC50 did it give?
The IC50 was < 0.5 µM.
